# Source: patent US8957000B2, “Use of sarmentine and its analogs for controlling plant pests” (Marrone Bio Innovations, Inc., priority 2009, dated 2015)
# Where two headings read alike, the source gives them in different places.
# How the values were obtained:
# [1] = test system: Barnyard grass (Echinochloa crusgalli L.); assay: Herbicidal activity, foliar spraying (spectrum and SAR study); type: in vivo; conditions: for pest or weed control at 5000 µg/mL: Echinochloa crus-galli, 72 h, read-out: Efficacy of phytotoxic activity; for pest or weed control at 5000 µg/mL / Efficacy of phytotoxic activity: at least 3 days after spraying
# Text: (§1) All weed, sedge and crop seedlings were planted in 8 cm×8 cm×7.2 cm or 10 cm×10 cm×9 cm plastic pots. Seedlings including pigweed (Amaranthus retroflexus, L.), barnyard grass (Echinochloa crusgalli L.), bindweed (Convolvulus arvensis L.), crabgrass (Digitaria sanguinalis L.), dandelion (Taraxacum officinale F.), lambsquarters (Chenopodium album L.), bluegrass (Poa annua L.), wild mustard (Brassica kaber L.), black nightshade (Solanum nigrum L.), curly dock (Rumex crispus L.), horseweed (Conyza Canadensis L.), sweet corn (Zea may S.) and wheat PR 1404 (Triticum aestivum L.) were planted in Super Soil potting soil. Seedlings including rice M-104 (Oryza saliva L.), sedge (Cyperus difformis L.) and sprangletop (Leptochloa fascicularis Lam) were planted in mud which was collected from rice field (Woodland, Calif., USA). When treated, all seedlings were 15 days old except for rice (10 days), wheat (20 days), corn (20 days) sprangletop (20 days old), sedge (20 days old) and horse weed (70 days old).
# (§2) Herbicidal activity of the active compound and synthesized compounds was evaluated by foliar spraying. Spraying carrier solution contained 2% ethanol, 0.2% glycosperse O-20 and 0.1% sodium lauryl sulfate. Freshly made solution with the evaluated compound at a concentration of 5 mg/mL was used. In the spectrum study, spraying volume was dependent on the foliar surface area, ranging from approximately 1 to 3 mL/pot plants. One or two pots of plants were treated for each. Number of pots was dependent on both foliar area and availability. In the structure-activity relationship study, one pot of barnyard grass was used and the spraying volume of each compound was 3 mL of 5 mg/mL.
# (§3) The optimal concentration of sarmentine was 5 mg/mL for excellent control of barnyard grass (Figure 2). Therefore, such a concentration was subjected to herbicidal spectrum study. Due to the hydrophobic property of sarmentine, a carrier solution containing 0.2% glycosperse O-20, 2% ethanol and 0.1% sodium lauryl sulfate was used. Although this solution contains a high concentration of surfactants, sarmentine can stay suspended in this solution no more than 15 min. Therefore, sarmentine was made freshly just before spraying.
# [2] = test system: Bindweed (Convolvulus arvensis, L.); assay: Herbicidal spectrum, foliar spraying; type: in vivo; conditions: foliar spray 5 mg/mL
# Text: as §1, §2, §3
# [3] = test system: Black nightshade (Solanum nigrum L.); assay: Herbicidal spectrum, foliar spraying; type: in vivo; conditions: foliar spray 5 mg/mL
# Text: as §1, §2, §3
# Bluegrass (Poa annua L.) = assay: Herbicidal spectrum, foliar spraying; type: in vivo; conditions: foliar spray 5 mg/mL
# Text: as §1, §2, §3
# [4] = test system: Crabgrass (Digitaria sanguinalis L.); assay: Herbicidal spectrum, foliar spraying; type: in vivo; conditions: foliar spray 5 mg/mL
# Text: as §1, §2, §3
# [5] = test system: Curly dock (Rumex crispus L.); assay: Herbicidal spectrum, foliar spraying; type: in vivo; conditions: foliar spray 5 mg/mL
# Text: as §1, §2, §3
# [6] = test system: Dandelion (Taraxacum officinale F.); assay: Herbicidal spectrum, foliar spraying; type: in vivo; conditions: foliar spray 5 mg/mL
# Text: as §1, §2, §3
# [7] = test system: Horse weed (Conyza Canadensis L.); assay: Herbicidal spectrum, foliar spraying; type: in vivo; conditions: foliar spray 5 mg/mL
# Text: as §1, §2, §3
# [8] = test system: Lambsquarters (Chenopodium album L.); assay: Herbicidal spectrum, foliar spraying; type: in vivo; conditions: foliar spray 5 mg/mL
# Text: as §1, §2, §3
# [9] = test system: Pigweed (Amaranthus retroflexus, L.); assay: Herbicidal spectrum, foliar spraying; type: in vivo; conditions: foliar spray 5 mg/mL
# Text: as §1, §2, §3
# [10] = test system: Rice (M 104) (Oryza saliva L); assay: Herbicidal spectrum, foliar spraying; type: in vivo; conditions: foliar spray 5 mg/mL
# Text: as §1, §2, §3
# [11] = test system: Sedge (Cyperus difformis L.); assay: Herbicidal spectrum, foliar spraying; type: in vivo; conditions: foliar spray 5 mg/mL
# Text: as §1, §2, §3
# [12] = test system: Sprangletop (Leptochloa fascicularis Lam.); assay: Herbicidal spectrum, foliar spraying; type: in vivo; conditions: foliar spray 5 mg/mL
# Text: as §1, §2, §3
# Sweet corn (Zea mays S.) = assay: Herbicidal spectrum, foliar spraying; type: in vivo; conditions: foliar spray 5 mg/mL
# Text: as §1, §2, §3
# [13] = test system: Wheat (PR 1404) (Triticum aestivum L.); assay: Herbicidal spectrum, foliar spraying; type: in vivo; conditions: foliar spray 5 mg/mL
# Text: as §1, §2, §3
# [14] = test system: Wild mustard (Brassica kaber L.); assay: Herbicidal spectrum, foliar spraying; type: in vivo; conditions: foliar spray 5 mg/mL
# Text: as §1, §2, §3
# [15] = Suspension of sarmentine in spraying carrier solution; type: physicochemical; conditions: 0.2% glycosperse O-20, 2% ethanol and 0.1% sodium lauryl sulfate
# Experimental: as §3
# plants = assay: Symptom of phytotoxic activity after spraying; type: in vivo; conditions: sarmentine solution
# Experimental: as §2
# Sarmentine is a contact phytotoxic compound. When plants were treated with sarmentine solution, slightly black tiny spots would first show on the leaves and then became bigger and bigger until they covered the whole leaves, especially obvious on the barnyard grass. […] This symptom was observed very similarly to that of middle-chain fatty acids such as decanoic acid (21, Table 4) and 2E-decenoic acid (22, Table 3) during the SAR study.
# [16] = SAR study, one pot of barnyard grass, foliar spray 3 mL of 5 mg/mL
# [17] = SAR study, barnyard grass, foliar spray 3 mL of 5 mg/mL
# [18] = 15 days old, 1 to 3 mL/pot, at least 3 days after spraying
# [19] = 20 days old, 1 to 3 mL/pot, at least 3 days after spraying
compound,measurement,setting,value
"CCCCCCCCCC(=O)N1CCCC1 [No 8, N-(Decanoyl)pyrrolidine]",pest or weed control at 5000 µg/mL,[1]; [16],80 to 100%
same,Phytotoxic activity relative to sarmentine / toxicity to barnyard grass (in words),[1]; [17],remained the same
"CCCCC/C=C\C=C\C(=O)N1CCCCC1 [No 14, (2E,4Z-Decadienoyl)piperidine]",pest or weed control at 5000 µg/mL,[1]; [16],80 to 100%
"CCCCCCCCCC(=O)N1CCCCC1 [No 12, N-(Decanoyl)piperidine]",pest or weed control at 5000 µg/mL,[1]; [16],80 to 100%
same,Phytotoxic activity relative to sarmentine / toxicity to barnyard grass (in words),[1]; [17],remained the same
"CCCCC/C=C\C=C\C(=O)NC1CCCC1 [No 6, N-Cyclopentyl 2E,4Z-decadienamide]",pest or weed control at 5000 µg/mL,[1]; [16],< 20%
"O=C(/C=C/c1ccccc1)NC1CCCC1 [No 7, N-Cyclopentylcinnamamide]",pest or weed control at 5000 µg/mL,[1]; [16],< 20%
"C1CCNCC1 [No 25, piperidine, reference compound]",Phytotoxic activity relative to sarmentine / toxicity to barnyard grass (in words),[1]; [17],non toxic
same,Efficacy of phytotoxic activity,[1]; [16],I
"pyrrolidine [No 24, reference compound]",Phytotoxic activity relative to sarmentine / toxicity to barnyard grass (in words),[1]; [17],non toxic
same,Efficacy of phytotoxic activity,[1]; [16],I
CCCCC/C=C\C=C\C(=O)OCC [No 3],pest or weed control at 5000 µg/mL,[1]; [16],< 20%
"CCCCCCCCCC(=O)O [No 21, decanoic acid]",pest or weed control at 5000 µg/mL,[1]; [16],80 to 100%
same,Phytotoxic activity relative to sarmentine / toxicity to barnyard grass (in words),[1]; [17],very active
"CCCCC/C=C\C=C\C(=O)N1CCCC1 [No 10, (2E,4Z-Decadienoyl)pyrrolidine]",pest or weed control at 5000 µg/mL,[1]; [16],80 to 100%
same,Phytotoxic activity relative to sarmentine / toxicity to barnyard grass (in words),[1]; [17],remained the same
"CCCCCCC/C=C/C(=O)O [No 22, 2E-decenoic acid]",pest or weed control at 5000 µg/mL,[1]; [16],80 to 100%
same,Phytotoxic activity relative to sarmentine / toxicity to barnyard grass (in words),[1]; [17],very active
"CCCCC/C=C/C=C/C(=O)N1CCCC1 [sarmentine, N-(2E,4E-Decadienoyl) pyrrolidine]",pest or weed control at 5000 µg/mL,"[1]; spectrum study, barnyard grass, 15 days old, foliar spray 5 mg/mL, 1 to 3 mL/pot",80 to 100%
same,Efficacy of phytotoxic activity,[1]; [16],VI (VI (80-100%))
same,Optimal concentration for excellent control of barnyard grass,"[1]; foliar spraying, Figure 2",5 mg/mL
same,Phytotoxic activity (in words),"[1]; spectrum study, barnyard grass, foliar spray 5 mg/mL",highly phytotoxic activity
same,Efficacy of phytotoxic activity,[2]; [18],VI (VI (80-100%))
same,Phytotoxic activity (in words),[2],highly phytotoxic activity
same,Efficacy of phytotoxic activity,[3]; [18],VI (VI (80-100%))
same,Phytotoxic activity (in words),[3],highly phytotoxic activity
same,Phytotoxic activity (in words),Bluegrass (Poa annua L.); blue grass,highly phytotoxic activity
same,Efficacy of phytotoxic activity,"Bluegrass (Poa annua L.); bluegrass, 15 days old, 1 to 3 mL/pot, at least 3 days after spraying",VI (VI (80-100%))
same,Efficacy of phytotoxic activity,[4]; [18],VI (VI (80-100%))
same,Phytotoxic activity (in words),[4],highly phytotoxic activity
same,Efficacy of phytotoxic activity,[5]; [18],VI (VI (80-100%))
same,Phytotoxic activity (in words),[5],highly phytotoxic activity
same,Efficacy of phytotoxic activity,[6]; [18],VI (VI (80-100%))
same,Phytotoxic activity (in words),[6],highly phytotoxic activity
same,Efficacy of phytotoxic activity,"[7]; horse weed, 70 days old, 1 to 3 mL/pot, at least 3 days after spraying",II (II (<20%))
same,Phytotoxic activity (in words),[7]; horseweed (70-day-old),Slightly phytotoxic activity
same,Efficacy of phytotoxic activity,[8]; [18],VI (VI (80-100%))
same,Phytotoxic activity (in words),[8],highly phytotoxic activity
same,Efficacy of phytotoxic activity,[9]; [18],VI (VI (80-100%))
same,Phytotoxic activity (in words),[9],highly phytotoxic activity
same,Efficacy of phytotoxic activity,"[10]; rice M-104, 10 days old, 1 to 3 mL/pot, at least 3 days after spraying",I
same,Phytotoxic activity (in words),"[10]; rice plants, after 10 days",No visible phytotoxic activity
same,Efficacy of phytotoxic activity,[11]; [19],III (III (20-40%))
same,Phytotoxic activity (in words),[11],Slightly phytotoxic activity
same,Efficacy of phytotoxic activity,[12]; [19],VI (VI (80-100%))
same,Phytotoxic activity (in words),[12],highly phytotoxic activity
same,Efficacy of phytotoxic activity,Sweet corn (Zea mays S.); [19],VI (VI (80-100%))
same,Phytotoxic activity (in words),Sweet corn (Zea mays S.),highly phytotoxic activity
same,Efficacy of phytotoxic activity,"[13]; wheat PR 1404, 20 days old, 1 to 3 mL/pot, at least 3 days after spraying",VI (VI (80-100%))
same,Phytotoxic activity (in words),[13]; wheat,highly phytotoxic activity
same,Efficacy of phytotoxic activity,[14]; [18],VI (VI (80-100%))
same,Phytotoxic activity (in words),[14],highly phytotoxic activity
same,Time sarmentine can stay suspended in carrier solution,[15],no more than 15 min
same,Time after spraying within which predominant phytotoxic activity happened,plants,≤ 48 h
"CCCCCCC/C=C/C(=O)N1CCCCCC1 [No 17, N-(Decenoyl)hexamethyleneimine]",pest or weed control at 5000 µg/mL,[1]; [16],80 to 100%
"C1CCCNCC1 [No 26, hexamethyleneimine, reference compound]",Phytotoxic activity relative to sarmentine / toxicity to barnyard grass (in words),[1]; [17],non toxic
same,Efficacy of phytotoxic activity,[1]; [16],I
"CCCCCCC/C=C/C(=O)N1CCCCC1 [No 13, N-(Decenoyl)piperidine]",pest or weed control at 5000 µg/mL,[1]; [16],80 to 100%
"O=C(O)/C=C/c1ccccc1 [No 20, trans-cinnamic acid, reference compound]",pest or weed control at 5000 µg/mL,[1]; [16],60 to 80%
same,Phytotoxic activity relative to sarmentine / toxicity to barnyard grass (in words),[1]; [17],very active
"CCCCCCCCCC(=O)N1CCCCCC1 [No 16, N-(Decanoyl)hexamethyleneimine]",pest or weed control at 5000 µg/mL,[1]; [16],80 to 100%
same,Phytotoxic activity relative to sarmentine / toxicity to barnyard grass (in words),[1]; [17],remained the same
"O=C(/C=C/c1ccccc1)N1CCCC1 [No 11, N-(trans-Cinnamoyl)pyrrolidine]",pest or weed control at 5000 µg/mL,[1]; [16],80 to 100%
same,Phytotoxic activity relative to sarmentine / toxicity to barnyard grass (in words),[1]; [17],remained the same
"O=C(/C=C/c1ccccc1)N1CCCCC1 [No 15, N-(trans-Cinnamoyl)piperidine]",pest or weed control at 5000 µg/mL,[1]; [16],40 to 60%
"CCCCCCCCCC(=O)NC1CCCC1 [No 4, N-Cyclopentyldecanamide]",pest or weed control at 5000 µg/mL,[1]; [16],< 20%
"CCCCCCC/C=C/C(=O)N1CCCC1 [No 9, N-(Decenoyl)pyrrolidine]",pest or weed control at 5000 µg/mL,[1]; [16],80 to 100%
same,Phytotoxic activity relative to sarmentine / toxicity to barnyard grass (in words),[1]; [17],remained the same
"NC1CCCC1 [No 23, cyclopentylamine, reference compound]",Phytotoxic activity relative to sarmentine / toxicity to barnyard grass (in words),[1]; [17],non toxic
same,Efficacy of phytotoxic activity,[1]; [16],I
"CCCCC/C=C\C=C\C(=O)N1CCCCCC1 [No 18, (2E,4Z-Decadienoyl)hexamethleneimine]",pest or weed control at 5000 µg/mL,[1]; [16],80 to 100%
"O=C(/C=C/c1ccccc1)N1CCCCCC1 [No 19, N-(trans-Cinnamoyl) hexamethleneimine]",pest or weed control at 5000 µg/mL,[1]; [16],< 20%
